Molecular target: CYP3A4 (Homo sapiens, UniProt P08684)
Test: Determination of CYP3A4 inhibitory activity (human liver microsome, Luciferin-IPA)
Conditions: CYP3A4 IC50 (nM), 37° C. 11 minutes
Experimental: The standard final Compound concentrations were 37, 111, 333, 1000, and 3000 nM. 12.5 μL of the Compound dilutions were transferred to a white 96-well plate. […] 25 μL of the buffer was added to each well. The plates were incubated at 37° C. for 11 minutes. 50 μL of luciferin detection reagent (Promega V9002) was added and the plates were incubated at room temperature for 5 minutes. The plate was read with a luminometer.
The dose-response curve and IC50 were obtained by fitting data to nonlinear regression model using GraphPad Prism software (v6.0).

Chain of CYP3A4 (P08684 whole entry): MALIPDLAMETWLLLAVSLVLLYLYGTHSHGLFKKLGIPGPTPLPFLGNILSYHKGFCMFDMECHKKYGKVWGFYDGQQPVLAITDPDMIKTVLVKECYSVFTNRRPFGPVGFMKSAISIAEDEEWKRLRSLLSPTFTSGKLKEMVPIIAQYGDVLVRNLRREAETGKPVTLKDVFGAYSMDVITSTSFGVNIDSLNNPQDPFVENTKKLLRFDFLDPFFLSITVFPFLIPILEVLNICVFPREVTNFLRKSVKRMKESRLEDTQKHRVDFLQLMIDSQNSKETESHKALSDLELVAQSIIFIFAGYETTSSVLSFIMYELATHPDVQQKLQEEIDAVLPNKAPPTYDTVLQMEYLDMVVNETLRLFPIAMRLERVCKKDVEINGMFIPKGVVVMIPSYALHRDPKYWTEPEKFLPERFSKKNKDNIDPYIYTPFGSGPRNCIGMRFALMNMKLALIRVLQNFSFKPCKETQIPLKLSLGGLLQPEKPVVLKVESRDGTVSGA

Row | SMILES | IC50
1 | COc1cc(NC(=O)c2cc(=O)c3ccccc3o2)c(C(=O)Nc2ccc(CCN(C)Cc3ccc4c(c3)OCO4)cc2)cc1OC [Compound 138] | > 1000 nM
2 | COc1cc(NC(=O)c2cc(=O)c3ccccc3o2)c(C(=O)Nc2ccc(CCNCc3ccc4c(cnn4C)c3)cc2)cc1OC [Compound 139] | > 1000 nM
3 | COc1cc(NC(=O)c2cc(=O)c3ccccc3o2)c(C(=O)Nc2ccc(CCN(Cc3ccc4c(cnn4C)c3)Cc3cncs3)cc2)cc1OC [Compound 140] | > 1000 nM
4 | CCN(CCc1ccc(NC(=O)c2cc(OC)c(OC)cc2NC(=O)c2cc(=O)c3ccccc3o2)cc1)Cc1cccc(-c2ccco2)c1 [Compound 141] | > 1000 nM
5 | COc1cc(NC(=O)c2cc(=O)c3ccccc3o2)c(C(=O)Nc2ccc(CCN(Cc3ccc(-n4cncn4)cc3)Cc3ccc4c(cnn4C)c3)cc2)cc1OC [Compound 142] | > 1000 nM
6 | CCN(CCc1ccc(NC(=O)c2cc(OC)c(OC)cc2NC(=O)c2cc(=O)c3ccccc3o2)cc1)Cc1ccc(-c2ccco2)cc1 [Compound 143] | > 1000 nM
7 | CCN(CCc1ccc(NC(=O)c2cc(OC)c(OC)cc2NC(=O)c2cc(=O)c3ccccc3o2)cc1)Cc1ccc(C)c2ncccc12 [Compound 144] | > 1000 nM
8 | COc1cc(NC(=O)c2cnc3ccccc3c2)c(C(=O)Nc2ccc(CCN(Cc3ccc(-n4ccnc4)cc3)Cc3ccc4c(cnn4C)c3)cc2)cc1OC [Compound 145] | 500 to 1000 nM
9 | COc1cc(NC(=O)c2cnc3ccccc3c2)c(C(=O)Nc2ccc(CCN(Cc3cccc(-n4ccnc4)c3)Cc3ccc4c(cnn4C)c3)cc2)cc1OC [Compound 146] | 500 to 1000 nM
10 | COc1ccc(CN(CCc2ccc(NC(=O)c3cc(OC)c(OC)cc3NC(=O)c3cc(=O)c4ccccc4o3)cc2)Cc2cncn2C)cc1OC [Compound 147] | < 100 nM
11 | COc1cc(NC(=O)c2cc(=O)c3ccccc3o2)c(C(=O)Nc2ccc(CCN(C)Cc3ccc(-c4nn[nH]n4)cc3)cc2)cc1OC [Compound 148] | > 1000 nM
12 | COc1cc(NC(=O)c2cc(=O)c3ccccc3o2)c(C(=O)Nc2ccc(CCN(CCN3CCOCC3)Cc3ccc4c(cnn4C)c3)cc2)cc1OC [Compound 149] | > 1000 nM
13 | COc1cc(NC(=O)c2cc(=O)c3ccccc3o2)c(C(=O)Nc2ccc(CCN(C)Cc3ccc4c(c3)CCO4)cc2)cc1OC [Compound 155] | > 1000 nM
14 | COc1cc(NC(=O)c2cc(=O)c3ccccc3o2)c(C(=O)Nc2ccc(CCN(C)Cc3cccc(-c4nc(C)no4)c3)cc2)cc1OC [Compound 157] | > 1000 nM
15 | CCN(CCc1ccc(NC(=O)c2cc(OC)c(OC)cc2NC(=O)c2cc(=O)c3ccccc3o2)cc1)Cc1ccc2c(c1)n(C)c(=O)n2C [Compound 161] | > 1000 nM
16 | CCN(CCc1ccc(NC(=O)c2cc(OC)c(OC)cc2NC(=O)c2cc(=O)c3ccccc3o2)cc1)Cc1ccc2c(c1)CCO2 [Compound 162] | > 1000 nM
17 | COc1cc(NC(=O)c2cc(=O)c3ccccc3o2)c(C(=O)Nc2ccc(CCN(Cc3ccc4c(c3)CCO4)Cc3ccc4c(cnn4C)c3)cc2)cc1OC [Compound 163] | > 1000 nM
18 | CCN(CCc1ccc(NC(=O)c2cc(OC)c(OC)cc2NC(=O)c2cc(=O)c3ccccc3o2)cc1)Cc1ccc2cnn(C)c2c1 [Compound 164] | > 1000 nM
19 | CCN(CCc1ccc(NC(=O)c2cc(OC)c(OC)cc2NC(=O)c2cc(=O)c3ccccc3o2)cc1)Cc1ccc2oncc2c1 [Compound 165] | > 1000 nM

Row | SMILES | IC50
20 | COc1cc(NC(=O)c2cnc3ccccc3n2)c(C(=O)Nc2ccc(CCN(Cc3ccc4c(cnn4C)c3)Cc3ccc4c(cnn4C)c3)cc2)cc1OC [Compound 167] | > 1000 nM
21 | COc1cc(NC(=O)c2cnc3ccccc3n2)c(C(=O)Nc2ccc(CCN(Cc3ccc4cnn(C)c4c3)Cc3ccc4cnn(C)c4c3)cc2)cc1OC [Compound 168] | > 1000 nM
22 | COc1cc(NC(=O)c2cnc3ccccc3n2)c(C(=O)Nc2ccc(CCN(Cc3ccc4c(c3)n(C)c(=O)n4C)Cc3ccc4c(c3)n(C)c(=O)n4C)cc2)cc1OC [Compound 169] | > 1000 nM
23 | COc1cc(NC(=O)c2cc(=O)c3ccccc3o2)c(C(=O)Nc2ccc(CCN(Cc3ccc4cnn(C)c4c3)Cc3ccc4cnn(C)c4c3)cc2)cc1OC [Compound 170] | > 1000 nM
24 | COc1cc(NC(=O)c2cnc3ccccc3n2)c(C(=O)Nc2ccc(CCN(Cc3ccc4c(cnn4C)c3)Cc3ccc4cnn(C)c4c3)cc2)cc1OC [Compound 172] | > 1000 nM
25 | COc1cc(NC(=O)c2cnc3ccccc3n2)c(C(=O)Nc2ccc(CCN(Cc3ccc4c(cnn4C)c3)Cc3ccc(C)c4ncccc34)cc2)cc1OC [Compound 173] | > 1000 nM
26 | COc1cc(NC(=O)c2cc(=O)c3ccccc3o2)c(C(=O)Nc2ccc(CCN(Cc3cccc(-n4ccnc4)c3)Cc3ccc4cnn(C)c4c3)cc2)cc1OC [Compound 177] | < 100 nM
27 | COc1cc(NC(=O)c2cnc3ccccc3c2)c(C(=O)Nc2ccc(CCN(Cc3cccc(-n4ccnc4)c3)Cc3ccc4c(c3)c(C)nn4C)cc2)cc1OC [Compound 179] | 250 to 500 nM
28 | COc1cc(NC(=O)c2cc(=O)c3ccccc3o2)c(C(=O)Nc2ccc(CCN(Cc3ccc4c(c3)c(C)nn4C)Cc3ccc4c(c3)c(C)nn4C)cc2)cc1OC [Compound 180] | > 1000 nM
29 | COc1cc(NC(=O)c2cc(=O)c3ccccc3o2)c(C(=O)Nc2ccc(CCN(Cc3ccc4c(cnn4C)c3)Cc3ccc4c(c3)c(C)nn4C)cc2)cc1OC [Compound 181] | > 1000 nM
30 | COc1cc(NC(=O)c2cc(=O)c3ccccc3o2)c(C(=O)Nc2ccc(CCN(Cc3ccncc3)Cc3ccc4cnn(C)c4c3)cc2)cc1OC [Compound 182] | < 100 nM
31 | CCN(CCc1ccc(NC(=O)c2cc(OC)c(OC)cc2NC(=O)c2cc(=O)c3ccccc3o2)cc1)Cc1ccc2[nH]ncc2c1 [Compound 184] | > 1000 nM
32 | CCN(CCc1ccc(NC(=O)c2cc(OC)c(OC)cc2NC(=O)c2cc(=O)c3ccccc3o2)cc1)Cc1ccc2cn[nH]c2c1 [Compound 185] | > 1000 nM
33 | COc1cc(NC(=O)c2cc(=O)c3ccccc3o2)c(C(=O)Nc2ccc(CCN(Cc3ccc(-n4ccnc4)cc3)Cc3ccc4cnn(C)c4c3)cc2)cc1OC [Compound 186] | 100 to 250 nM
34 | COc1cc(NC(=O)c2cc(=O)c3ccccc3o2)c(C(=O)Nc2ccc(CCN(Cc3ccc(-c4ccncc4)cc3)Cc3ccc4cnn(C)c4c3)cc2)cc1OC [Compound 187] | > 1000 nM
35 | COc1cc(NC(=O)c2cc(=O)c3ccccc3o2)c(C(=O)Nc2ccc(CCN(Cc3ccc(-c4ccncc4)cc3)Cc3ccc4c(cnn4C)c3)cc2)cc1OC [Compound 188] | > 1000 nM
36 | COc1cc(NC(=O)c2cc(=O)c3ccccc3o2)c(C(=O)Nc2ccc(CCN(Cc3ccc(-c4cccnc4)cc3)Cc3ccc4c(cnn4C)c3)cc2)cc1OC [Compound 189] | > 1000 nM
37 | COc1cc(NC(=O)c2cc(=O)c3ccccc3o2)c(C(=O)Nc2ccc(CCN(C)Cc3ccc4c(ccn4C)c3)cc2)cc1OC [Compound 190] | > 1000 nM
38 | CCn1ncc2cc(CN(C)CCc3ccc(NC(=O)c4cc(OC)c(OC)cc4NC(=O)c4cc(=O)c5ccccc5o4)cc3)ccc21 [Compound 191] | > 1000 nM

Second part, the molecule after the results:

Row | IC50 | SMILES
39 | > 1000 nM | CCN(CCc1ccc(NC(=O)c2cc(OC)c(OC)cc2NC(=O)c2cc(=O)c3ccccc3o2)cc1)Cc1ccc2c(cnn2CC)c1 [Compound 192]
40 | > 1000 nM | COc1cc(NC(=O)c2cc(=O)c3cc(C)cc(C)c3o2)c(C(=O)Nc2ccc(CCN(Cc3cccc(-n4ccnc4)c3)Cc3ccc4c(cnn4C)c3)cc2)cc1OC [Compound 197]
41 | 500 to 1000 nM | COc1cc(NC(=O)C2CC(=O)c3cc(C)ccc3O2)c(C(=O)Nc2ccc(CCN(Cc3cccc(-n4ccnc4)c3)Cc3ccc4c(cnn4C)c3)cc2)cc1OC (stereo not drawn) [Compound 199]
42 | > 1000 nM | COc1cc(NC(=O)c2cc(=O)c3ccccc3o2)c(C(=O)Nc2ccc(CCN(Cc3cncs3)Cc3cccc4cnn(C)c34)cc2)cc1OC [Compound 200]
43 | 500 to 1000 nM | COc1cc(NC(=O)c2cc(=O)c3ccccc3o2)c(C(=O)Nc2ccc(CCN(Cc3cccnc3)Cc3cccc4cnn(C)c34)cc2)cc1OC [Compound 201]
44 | 500 to 1000 nM | COc1cc(NC(=O)c2cc(=O)c3ccccc3o2)c(C(=O)Nc2ccc(CCN(Cc3cccc(-c4nc(C)no4)c3)Cc3cncs3)cc2)cc1OC [Compound 202]
45 | 250 to 500 nM | COc1cc(NC(=O)c2cc(=O)c3ccccc3o2)c(C(=O)Nc2ccc(CCN(Cc3cccnc3)Cc3cccc(-c4nc(C)no4)c3)cc2)cc1OC [Compound 203]
46 | 250 to 500 nM | COc1cc(NC(=O)c2cc(=O)c3ccccc3o2)c(C(=O)Nc2ccc(CCN(Cc3cccc(-n4ccnc4)c3)Cc3ccc4nn(C)cc4c3)cc2)cc1OC [Compound 204]
47 | 500 to 1000 nM | CCn1ncc2cc(CN(CCc3ccc(NC(=O)c4cc(OC)c(OC)cc4NC(=O)C4CC(=O)c5ccccc5O4)cc3)Cc3cccc(-n4ccnc4)c3)ccc21 (stereo not drawn) [Compound 205]
48 | > 1000 nM | COc1cc(NC(=O)c2cc(=O)c3ccccc3o2)c(C(=O)Nc2ccc(CCN(Cc3cccc(-n4ccnc4)c3)Cc3ccc(C)c4ncccc34)cc2)cc1OC [Compound 206]
49 | > 1000 nM | CCn1c2ccccc2c2cc(CN(CCc3ccc(NC(=O)c4cc(OC)c(OC)cc4NC(=O)c4cc(=O)c5ccccc5o4)cc3)Cc3cccc(-n4ccnc4)c3)ccc21 [Compound 212]
50 | < 100 nM | COc1cc(NC(=O)C2CC(=O)c3ccccc3O2)c(C(=O)Nc2ccc(CCN(Cc3cccc(-n4ccnc4)c3)Cc3cc(OC)c(OC)c(OC)c3)cc2)cc1OC (stereo not drawn) [Compound 213]
51 | > 1000 nM | COc1cc(NC(=O)c2cc(=O)c3ccccc3o2)c(C(=O)Nc2ccc(CCNCc3cccnc3)cc2)cc1OC [Compound 214]
52 | > 1000 nM | COc1cc(NC(=O)c2cc(=O)c3ccccc3o2)c(C(=O)Nc2ccc(CCN)cc2)cc1OC [Compound 215]
53 | 100 to 250 nM | COc1cc(NC(=O)c2cc(=O)c3ccccc3o2)c(C(=O)Nc2ccc(CCN(Cc3cccnc3)Cc3cccc(-n4ccnc4)c3)cc2)cc1OC [Compound 216]
54 | 100 to 250 nM | COc1cncc(CN(CCc2ccc(NC(=O)c3cc(OC)c(OC)cc3NC(=O)c3cc(=O)c4ccccc4o3)cc2)Cc2cccc(-n3ccnc3)c2)c1 [Compound 217]

— US20220106301A1, “ACETAMIDO-PHENYLBENZAMIDE DERIVATIVES AND METHODS OF USING THE SAME” (Athenex, Inc., priority 2020, published 2022)
